Marks after values point to notes of the source that are not given here.
What was measured:
melanoma = experiment: Simultaneous intratumoral and intravenous administration (data not shown); format: in vivo
Protocol: A possibility of simultaneous intratumoral and intravenous administration of the composition comprising 64Zne(Asp)2 was assessed in additional experiments (data not shown).

B16 melanoma cells = experiment: Experimental model of hematogenous B16 melanoma metastasis (lungs), intravenous administration; format: in vivo, C57Bl mice; details: IV 60 μg/mouse; for Number of animals in the group with metastases / Number of metastases/mouse (M ± m) / Volume of metastases/mouse (M ± m): lungs at day 26
Protocol: An experimental model of hematogenous metastasis was used in the experiment which allowed for the inoculation of B16 melanoma cells. The characteristic of these cells is given in Example 1. The cells were cultured in vitro under standard conditions. For transplantation, tumor cells were removed from the substrate with 0.02% Versene solution and the suspension cellularity and viability were evaluated in the presence of trypan blue in a hemocytometer and the suspension was adjusted to a concentration of […]. Melanoma cells were injected intracutaneously (IC) in 0.05 ml of suspension (0.5×10^6 cells/mouse) into the back area of the animal. Part of the coat on the back of mice was removed with a depilatory cream at 24 hours before tumor cell inoculation. Cells isolated from B16 mouse melanoma were used in the experiment. Cells were cultured in vitro under standard conditions. For inoculation, tumor cells were removed from the substrate with 0.02% Versene solution. The cellularity and viability of the obtained cell suspension were evaluated with a hemocytometer in presence of a trypan blue. Cell concentration was adjusted with saline to 1×10^6 cells/ml. Melanoma cells were injected IV in 0.2 ml of suspension (0.2×10^6 cells/mouse) into the lateral tail vein.
^64Zne(Asp)2 was dissolved in deuterium-depleted water. The composition was injected intravenously using a microinjection syringe at a dose of 60 μg of ^64Zne/mouse: two injections at a dose of 30 μg/mouse, each in a volume of 0.3 ml (0.6 ml in total), for 4 hours. The injections were given every other day for 10 days (5 injections in total). The first injection of the inventive composition was given 45 minutes or 24 hours after inoculation of tumor cells. At day 26 after IV injection of tumor cells the lungs were excised from all animals in each group and the number and volume of metastases were then determined. C57Bl mice (8 mice per group) at the age of 12-14 weeks, weighing 25-27 g were used in the experiment. The conditions in which animals were maintained are described in Example 1 above.
The ^64Zne(Asp)2 composition was injected intravenously into the animal's lateral tail vein using a Micro-Fine Plus microinjection syringe (Becton Dickinson). The injection site was cleaned with 96% ethanol.
The animals were divided into experimental groups as follows: • Group No. 1: control group, mice injected IV with B16 melanoma cells+IV injection of the solvent (deuterium-depleted water); • Group No. 2: mice injected IV with B16 melanoma cells+IV injection of ^64Zne(Asp)2 24 hours after the tumor cells were inoculated; • Group No. 3: mice injected IV with B16 melanoma cells+IV injection of ^64Zne(Asp)2 45 minutes after the tumor cells were inoculated
On day 26 after IV injection of tumor cells the lungs were excised from all animals in each group and the number and volume of metastases were then determined.
The volume of metastases was calculated using the following formula for the volume of a sphere:
V= 4/3×πr^3, where V is the metastasis volume (mm^3); r is the metastasis radius (mm).

[1] = first injection 45 min after tumor cells were inoculated
[2] = first injection 24 hours after tumor cells were inoculated

N[C@@H](CC(=O)[O-])C(=O)[O-].[Zn+2] [^64Zne(Asp)2, Zinc L-aspartate]
suppression of the metastatic process (tumor size, surviving animals, number of metastases), words (melanoma): confirmed the efficacy | number and volume of metastases vs. control (B16 melanoma cells; 45 min or 24 hours after inoculation): statistically significant decrease | Number of animals in the group with metastases (B16 melanoma cells; [1]): 75% | Number of metastases/mouse (M ± m) (B16 melanoma cells; [1]): 4 ± 2 | Volume of metastases/mouse (M ± m) (B16 melanoma cells; [1]): 2.5 ± 1.7* mm^3 | Number of animals in the group with metastases (B16 melanoma cells; [2]): 75% | Number of metastases/mouse (M ± m) (B16 melanoma cells; [2]): 6.4 ± 2.5 | Volume of metastases/mouse (M ± m) (B16 melanoma cells; [2]): 3.3 ± 2* mm^3
